What was measured:
S. aureus = test: Biocidal efficacy, log reduction of S. aureus (Table 2); assay type: cell-based, Staphylococcus aureus; conditions: total active 0.12-0.89 mmole/liter as listed per composition; for Log Reduction (S. aureus) (30 seconds): 30 seconds exposure; for Log Reduction (S. aureus) (60 seconds): 60 seconds exposure
[1] = tested on: Staphylococcus aureus (ATCC 6538); test: Antimicrobial efficacy, log reduction at 12 grams per gallon in sterile deionized water (Table 3); assay type: cell-based; conditions: ambient temperature
Protocol: (§1) A 4% solution of trimethyl sulfonium triiodide and a solution of 20% hexadecyl tributyl phosphonium diiodochloride were tested at a concentration of 12 grams per gallon in sterile deionized water against Staphylococcus aureus (ATCC 6538).

[2] = pH of the test solution (Table 3); assay type: physicochemical; conditions: test substance at 12 grams per gallon in sterile deionized water
Protocol: as §1

With `C[N+](C)(C)CCO.Cl[I-]I` [choline chloro diiodide] as the compound, how does the “Log Reduction (S. aureus) (30 seconds)” value (S. aureus) read?
The value was greater than 6.9.

What about the “Log Reduction (S. aureus) (60 seconds)” value (S. aureus) of the same compound?
The value was greater than 6.9.

With `CCCC[N+](CCCC)(CCCC)CCCC.Cl[I-]I` [tetrabutyl ammonium chloro diiodide] as the compound, how does the “Log Reduction (S. aureus) (30 seconds)” value (S. aureus) read?
The value was greater than 6.4.

What about the “Log Reduction (S. aureus) (60 seconds)” value (S. aureus) of the same compound?
Its value is greater than 6.4.

Which results are given for `C[N+](C)(C)C.Cl[I-]I` [tetramethyl ammonium chloro diiodide]?
Log Reduction (S. aureus) (30 seconds) (S. aureus): 4.0; Log Reduction (S. aureus) (60 seconds) (S. aureus): >6.8

For `CCCCCCCCCCCCCCCC[P+](CCCC)(CCCC)CCCC.Cl[I-]I` [tributyl hexadecyl phosphonium chloro diiodide], which “Log Reduction” value ([1]; exposure time 15 seconds) is on record?
The value was 3.74.

And the “Log Reduction” value ([1]; exposure time 30 seconds)?
The value was 4.98.

What about the “Log Reduction” value ([1]; exposure time 5 minutes, listed as 20% hexadecyl tributyl phosphonium diiodochloride) of the same compound?
The value was 6.21.

And the pH [2]?
The pH was 4.61.

And the “Log Reduction (S. aureus) (30 seconds)” value (S. aureus)?
The value was 5.0.

And the “Log Reduction (S. aureus) (60 seconds)” value (S. aureus)?
Its value is 6.2.

Which “Log Reduction” value ([1]; exposure time 15 seconds) does the source give for `C[S+](C)C.I[I-]I` [trimethyl sulfonium triiodide] here?
The value was 4.67.

What about the “Log Reduction” value ([1]; exposure time 30 seconds, listed as 4% trimethyl sulfonium triiodide) of the same compound?
The value was greater than 6.95.

And the “Log Reduction” value ([1]; exposure time 5 minutes)?
Its value is greater than 6.95.

And the pH [2]?
The pH was 2.52.

And the “Log Reduction (S. aureus) (30 seconds)” value (S. aureus)?
Its value is greater than 7.0.

And the “Log Reduction (S. aureus) (60 seconds)” value (S. aureus)?
The value was greater than 7.0.

Reference: patent US6506737B1, “Antimicrobial phosphonium and sulfonium polyhalide compositions” (Ecolab, Inc., priority 2000, dated 2003)
